Experiments:
T315I Abl = biological target: T1, T315I Abl (Mus musculus, UniProt P00520, T315I); assay: cAbl Luminescence-based Enzyme Assay (Kinase-Glo); type: biochemical
T1 construct: The c-Abl T315I KD (kinase domain) was purified as follows; made in house; host or cells: E. coli BL21(DE3) pSA0145 (lambda phosphatase co-expression) or BL21(DE3)Codon+RIL
T1 sequence (P00520 242-493 T315I limits assumed): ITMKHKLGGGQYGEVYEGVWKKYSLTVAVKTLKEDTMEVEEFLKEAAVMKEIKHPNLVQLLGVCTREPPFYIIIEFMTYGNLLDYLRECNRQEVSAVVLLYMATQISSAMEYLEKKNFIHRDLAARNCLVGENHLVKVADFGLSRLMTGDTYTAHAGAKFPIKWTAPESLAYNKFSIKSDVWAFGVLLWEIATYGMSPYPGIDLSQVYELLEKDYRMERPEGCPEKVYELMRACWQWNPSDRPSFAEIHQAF
Excerpt: Homogeneous luminescence-based inhibitor screening assays were developed for c-Abl, MET, AurA, and PDK1 kinases (among others). Each of these assays made use of an ATP depletion assay (Kinase-Glo™, Promega Corporation, Madison, Wis.) to quantitate kinase activity. The Kinase-Glo™ format uses a thermostable luciferase to generate luminescent signal from ATP remaining in solution following the kinase reaction. The luminescent signal is inversely correlated with the amount of kinase activity.
Dose response was analyzed using the equation: y=min+{(max−min)/(1 +10^[compound]-logIC50)}, where y is the observed initial slope, max=the slope in the absence of inhibitor, min=the slope at infinite inhibitor, and the IC50 is the [compound] that corresponds to ½ the total observed amplitude (Amplitude=max−min).
An open-reading frame for c-Abl was amplified from a Mus musculus (mouse) cDNA library prepared from freshly harvested mouse liver using a commercially available kit (Invitrogen) by PCR using the following primers: […]
The c-Abl T315I KD (kinase domain) was purified as follows. Cells were collected by centrifugation, lysed in diluted cracking buffer (50 mM Tris HCl, pH 7.5, 500 mM KCl, 0.1% Tween 20, 20 mM Imidazole, with sonication, and centrifuged to remove cell debris. The soluble fraction was purified over an IMAC column charged with nickel (Pharmacia, Uppsala, Sweden), and eluted under native conditions with a gradient of 20 mM to 500 mM imidazole in 50 mM Tris, pH7.8, 500 mM NaCl, 10 mM methionine, 10% glycerol. The protein was then further purified by gel filtration using a Superdex 75 preparative grade column equilibrated in GF5 buffer (10 mM HEPES, pH7.5, 10 mM methionine, 500 mM NaCl, 5 mM DTT, and 10% glycerol). Fractions containing the purified c-Abl T315I KD kinase domain were pooled. The protein obtained was 98% pure as judged by electrophoresis on SDS polyacrylamide gels. […] The protein was then dephosphorylated with Shrimp Alkaline Phosphatase (MBI Fermentas, Burlington, Canada) under the following conditions: 100U Shrimp Alkaline Phosphatase/mg of c-Abl T315I KD, 100 mM MgCl2, and 250 mM additional NaCl. The reaction was run overnight at 23° C. The protein was determined to be unphosphorylated by Mass spectroscopic analysis. Any precipitate was spun out and the soluble fraction was separated from reactants by gel filtration using a Superdex 75 preparative grade column equilibrated in GF4 buffer (10 mM HEPES, pH7.5, 10 mM methionine, 150 mM NaCl, 5 mM DTT, and 10% glycerol).
cAbl Luminescence-based Enzyme Assay
Materials: Abl substrate peptide=EAIYAAPFAKKK-OH (Biopeptide, San Diego, Calif.), ATP (Sigma Cat#A-3377, FW=551), HEPES buffer, pH 7.5, Bovine serum albumin (BSA) (Roche 92423420), MgCl2, Staurosporine (Streptomyces sp. Sigma Cat#85660-1MG), white Costar 384-well flat -bottom plate (VWR Cat#29444-088), Abl kinase (see below), Kinase-Glo™ (Promega Cat#V6712).
Stock Solutions: 10 mM Abl substrate peptide (13.4 mg/ml in miliQH2O) stored at −20° C.; 100 mM HEPES buffer, pH 7.5 (5 ml 1M stock+45ml miliQH2O); 10 mM ATP (5.51 mg/ml in dH2O) stored at −20° C. (diluted 50 μl into total of 10 ml miliQH2O daily =50 μM ATP working stock); 1% BSA (1 g BSA in 100 ml 0.1 M HEPES, pH 7.5, stored at −20° C.), 100 μM MgCl2; 200 μM Staurosporine, 2× Kinase-Glo™ reagent (made fresh or stored at −20° C.).
Standard Assay Setup for 384-well format (20 μl kinase reaction, 40 μl detection reaction): 10 mM MgCl2; 100 μM Abl substrate peptide; 0.1% BSA; 1 μl test compound (in DMSO); 0.4 μg/ml Abl kinase domain; 10 μM ATP; 100 mM HEPES buffer. Positive controls contained DMSO with no test compound. Negative controls contained 10 μM staurosporine.
The kinase reactions were initiated at time t=0 by the addition of ATP. Kinase reactions were incubated at 21° C. for 30 min, then 20 μl of Kinase-Glo™ reagent were added to each well to quench the kinase reaction and initiate the luminescence reaction. […]

GTL16 cells = assay: 96-well XTT cell survival assay (GTL16 cells); type: cell-based; settings: Homo sapiens, GTL 16, 72 hours
Description: GTL16 cells were maintained in DMEM Medium supplemented with 10% fetal bovine serum (FBS) 2 mM L-Glutamine and 100 units penicillin/100 μg streptomycin, at 37° C. in 5% CO2.
Compounds were tested in the following assays in duplicate.
96-well XTT assay (GLT16 cells): One day prior to assay the growth media was aspirated off and assay media was added to cells. On the day of the assay, the cells were grown in assay media containing various concentrations of compounds (duplicates) on a 96-well flat bottom plate for 72 hours at 37° C. in 5% CO2. The starting cell number was 5000 cells per well and volume was 120 μl. At the end of the 72-hour incubation, 40 μl of XTT labeling mixture (50:1 solution of sodium 3′-[1-(phenylaminocarbonyl)-3,4-tetrazolium]-bis (4-methoxy-6-nitro) benzene sulfonic acid hydrate and Electron-coupling reagent: PMS (N-methyl dibenzopyrazine methyl sulfate) were added to each well of the plate. After an additional 5 hours of incubation at 37° C., the absorbance reading at 450 nm with a background correction of 650 nm was measured with a spectrophotometer.

| SMILES | IC50 (T315I Abl) | IC50 (GTL16 cells) |
| --- | --- | --- |
| O=C(Nc1nc2[nH]nc(-n3cncc3-c3cccc(F)c3F)c2s1)C1CC1 [Cyclopropanecarboxylic acid {3-[5-(2,3-difluoro-phenyl)-imidazol-1-yl]-1H-pyrazolo[3,4-d]thiazol-5-yl}-amide] | < 100 nM | 1000 to 10000 nM |
| O=C(Nc1nc2[nH]nc(-n3cncc3-c3c(Cl)cccc3Cl)c2s1)C1CC1 [Cyclopropanecarboxylic acid {3-[5-(2,6-dichloro-phenyl)-imidazol-1-yl]-1H-pyrazolo[3,4-d]thiazol-5-yl}-amide] | < 100 nM | < 100 nM |
| O=C(Nc1nc2[nH]nc(-n3cncc3-c3c(Cl)ccc(Cl)c3Cl)c2s1)C1CC1 [Cyclopropanecarboxylic acid {3-[5-(2,3,6-trichloro-phenyl)-imidazol-1-yl]-1H-pyrazolo[3,4-d]thiazol-5-yl}-amide] | < 100 nM | 100 to 1000 nM |
| O=C(Nc1nc2[nH]nc(-n3cncc3-c3ccccn3)c2s1)C1CC1 [Cyclopropanecarboxylic acid [3-(5-pyridin-2-yl-imidazol-1-yl)-1H-pyrazolo[3,4-d]thiazol-5-yl]-amide] | < 100 nM | – |
| O=C(Nc1cc[nH]n1)Nc1nc2[nH]nc(-n3cncc3-c3ccccc3Cl)c2s1 [1-{3-[5-(2-Chloro-phenyl)-imidazol-1-yl]-1H-pyrazolo[3,4-d]thiazol-5-yl}-3-(1H-pyrazol-3-yl)-urea] | – | < 100 nM |
| O=C(Nc1nc2[nH]nc(-n3cncc3-c3ccccc3)c2s1)C1CC1 [Cyclopropanecarboxylic acid [3-(5-phenyl-imidazol-1-yl)-1H-pyrazolo[3,4-d]thiazol-5-yl]-amide] | 100 to 1000 nM | 1000 to 10000 nM |
| O=C(Nc1nc2[nH]nc(-n3cncc3-c3ccc4ccccc4c3)c2s1)C1CC1 [Cyclopropanecarboxylic acid [3-(5-naphthalen-2-yl-imidazol-1-yl)-1H-pyrazolo[3,4-d]thiazol-5-yl]-amide] | 1000 to 10000 nM | – |
| O=C(Nc1nc2[nH]nc(-n3cncc3-c3ccccc3Cl)c2s1)C1CC1 [Cyclopropanecarboxylic acid {3-[5-(2-chloro-phenyl)-imidazol-1-yl]-1H-pyrazolo[3,4-d]thiazol-5-yl}-amide] | < 100 nM | 100 to 1000 nM |
| NC(=O)COc1ccc(-c2cncn2-c2n[nH]c3nc(NC(=O)C4CC4)sc23)c(Cl)c1 [Cyclopropanecarboxylic acid {3-[5-(4-carbamoylmethoxy-2-chloro-phenyl)-imidazol-1-yl]-1H-pyrazolo[3,4-d]thiazol-5-yl}-amide] | < 100 nM | – |

Source: patent US20070173488A1, “Pyrazolothiazole Protein Kinase Modulators” (SGX Pharmaceuticals, Inc., priority 2005, published 2007)
